As usually defined, the IC50 is the point on the concentration scale where inhibition reaches its midpoint.

One test concerns the target Cathepsin S (UniProt P25774). The test can be described thus: Cathepsin enzyme inhibition assay (fluorogenic peptide substrate Z-Val-Val-Arg-AMC), Cathepsin S. Type of test: biochemical, human and mouse. Conditions: enzyme 1 nM, substrate 20 μM, pH 6.5; read-out: CatS IC50. The procedure: (§1) Cathepsin Enzyme Inhibition Assay
(§2) Enzyme activity is measured by observing the increase in fluorescence intensity caused by cleavage of a peptide substrate containing a fluorophore whose emission is quenched in the intact peptide.
(§3) Assay buffer: 100 mM potassium phosphate pH 6.5, EDTA-Na 5 mM, Triton X-100 0.001%, DDT 5 mM.
(§4) Enzymes (all at 1 nM): human and mouse Cathepsin S, Cat K, Cat B, Cat L Substrate (20 μM): Z-Val-Val-Arg-AMC, except for Cat K which uses Z-Leu-Arg-AMC (both from Bachem).
(§5) AMC=7-Amino-4-Methyl-Coumarin.
Enzyme is added to the substance dilutions in 96-well microtitre plates and the reaction is started with substrate. […] IC50 are calculated by standard methods. The results are expressed in μM in the following table.

In a further test the target is Cat L (UniProt P07711). The test can be described thus: Cathepsin enzyme inhibition assay (fluorogenic peptide substrate Z-Val-Val-Arg-AMC), Cathepsin L. Type of test: biochemical, human and mouse. Conditions: enzyme 1 nM, substrate 20 μM, pH 6.5; read-out: CatL IC50. The protocol:
as §1, §2, §3, §4, §5
Excitation 360 nm, Emission 465 nm.
Enzyme is added to the substance dilutions in 96-well microtitre plates and the reaction is started with substrate. Fluorescence emission is measured over 20 minutes, during which time a linear increase is observed in the absence of inhibitor. IC50 are calculated by standard methods. The results are expressed in μM in the following table.

For the compound `N#CC1(NC(=O)C2C[C@@H](S(=O)(=O)c3ccc(OCC(F)(F)F)cc3Cl)CN2C(=O)C2(c3ccc(Cl)nc3)CC2)CC1` (stereo in doubt) [Example 377, (R)-1-[1-(6-Chloro-pyridin-3-yl)-cyclopropanecarbonyl]-4-[2-chloro-4-(2,2,2-trifluoro-ethoxy)-benzenesulfonyl]-pyrrolidine-2-carboxylic acid (1-cyano-cyclopropyl)-amide], the IC50 was determined as 0.24 nM at Cathepsin S and 293 nM on Cat L. In the same order, the values of `CC(C)(C)OC(=O)N1C[C@H](S(=O)(=O)c2ccccc2CO)C[C@H]1C(=O)NC1(C#N)CC1` [Example 1, (2S,4R)-2-(1-Cyano-cyclopropylcarbamoyl)-4-(2-hydroxymethyl-benzenesulfonyl)-pyrrolidine-1-carboxylic acid tert-butyl ester] are 15 nM and at least 25000 nM. In the case of `CC(C)(C)OC(=O)N1C[C@H](S(=O)(=O)c2ccccc2OC(F)(F)F)C[C@H]1C(=O)NC1(C#N)CC1` [Example 2, (2S,4R)-2-(1-Cyano-cyclopropylcarbamoyl)-4-(2-trifluoromethoxy-benzenesulfonyl)-pyrrolidine-1-carboxylic acid tert-butyl ester], the IC50 on Cathepsin S is 43.5 nM; on Cat L it was at least 25000 nM.

`CC(C)(C)OC(=O)N1C[C@H](S(=O)(=O)c2ccc(-n3ccnc3)cc2)C[C@H]1C(=O)NC1(C#N)CC1` [Example 3, (2S,4R)-2-(1-Cyano-cyclopropylcarbamoyl)-4-(4-imidazol-1-yl-benzenesulfonyl)-pyrrolidine-1-carboxylic acid tert-butyl ester]: the IC50 was 11 nM on Cathepsin S and at least 25000 nM on Cat L. For `CC(C)(C)OC(=O)N1C[C@H](S(=O)(=O)c2ccc(Cl)cc2Cl)C[C@H]1C(=O)NC1(C#N)CC1` [Example 4, (2S,4R)-2-(1-Cyano-cyclopropylcarbamoyl)-4-(2,4-dichloro-benzenesulfonyl)-pyrrolidine-1-carboxylic acid-tert-butyl ester] the same measures were 5.2 nM and 16500 nM.

Take `CC(C)(C)OC(=O)N1C[C@H](S(=O)(=O)c2c(Cl)cccc2Cl)C[C@H]1C(=O)NC1(C#N)CC1` [Example 5, (2S,4R)-2-(1-Cyano-cyclopropylcarbamoyl)-4-(2,6-dichloro-benzenesulfonyl)-pyrrolidine-1-carboxylic acid tert-butyl ester]: the IC50 at Cathepsin S was found to be 0.8 nM; on Cat L it was 9770 nM. In the case of `CC(C)(C)OC(=O)N1C[C@H](S(=O)(=O)c2ccc(F)cc2F)C[C@H]1C(=O)NC1(C#N)CC1` [Example 6, (2S,4R)-2-(1-Cyano-cyclopropylcarbamoyl)-4-(2,4-difluoro-benzenesulfonyl)-pyrrolidine-1-carboxylic acid tert-butyl ester], the IC50 is 38.5 nM on Cathepsin S and at least 25000 nM at Cat L. `CC(C)(C)OC(=O)N1C[C@H](S(=O)(=O)c2ccc(Br)cc2C(F)(F)F)C[C@H]1C(=O)NC1(C#N)CC1` [Example 7, (2S,4R)-4-(4-Bromo-2-trifluoromethyl-benzenesulfonyl)-2-(1-cyano-cyclopropylcarbamoyl)-pyrrolidine-1-carboxylic acid tert-butyl ester]: the IC50 at Cathepsin S is 2.7 nM; at Cat L, at least 25000 nM. On to `N#CC1(NC(=O)[C@@H]2C[C@@H](S(=O)(=O)c3ccccc3C(F)(F)F)CN2c2ccccc2)CC1` [Example 119, (2S,4R)-1-Phenyl-4-(2-trifluoromethyl-benzenesulfonyl)-pyrrolidine-2-carboxylic acid (1-cyano-cyclopropyl)-amide], for which the half-maximal inhibitory concentration (IC50) at Cat L is at least 25000 nM. Same read-out and setting: the result for `N#CCNC(=O)[C@@H]1C[C@@H](S(=O)(=O)c2ccccc2C(F)(F)F)CN1c1ccccc1` [Example 151, (2S,4R)-1-Phenyl-4-(2-trifluoromethyl-benzenesulfonyl)-pyrrolidine-2-carboxylic acid cyanomethyl-amide] reads at least 25000 nM; that for `N#CC1(NC(=O)[C@@H]2C[C@@H](S(=O)(=O)c3ccccc3C(F)(F)F)CN2c2ccnc(C(F)(F)F)n2)CC1` [Example 185, (2S,4R)-4-(2-Trifluoromethyl-benzenesulfonyl)-1-(2-trifluoromethyl-pyrimidin-4-yl)-pyrrolidine-2-carboxylic acid (1-cyano-cyclopropyl)-amide], at least 25000 nM.

For `N#CC1(NC(=O)[C@@H]2C[C@@H](S(=O)(=O)c3ccccc3C(F)(F)F)CN2c2ncccc2C(F)(F)F)CC1` [Example 186, (2S,4R)-4-(2-Trifluoromethyl-benzenesulfonyl)-1-(3-trifluoromethyl-pyridin-2-yl)-pyrrolidine-2-carboxylic acid (1-cyano-cyclopropyl)-amide], the IC50 at Cat L is at least 25000 nM. On to `N#CC1(NC(=O)[C@H]2C[C@@H](S(=O)(=O)c3ccccc3C(F)(F)F)CN2c2ncccc2C(F)(F)F)CC1` [Example 187, (2R,4R)-4-(2-Trifluoromethyl-benzenesulfonyl)-1-(3-trifluoromethyl-pyridin-2-yl)-pyrrolidine-2-carboxylic acid (1-cyano-cyclopropyl)-amide], for which the 50% inhibitory concentration (IC50) at Cat L is at least 25000 nM. For the compound `Cc1nccn1-c1ccc(S(=O)(=O)[C@@H]2C[C@@H](C(=O)NC3(C#N)CC3)N(C(=O)C3(c4ccc(Cl)cc4)CC3)C2)c(Cl)c1` [Example 326, (2S,4R)-4-[2-Chloro-4-(2-methyl-imidazol-1-yl)-benzenesulfonyl]-1-[1-(4-chloro-phenyl)-cyclopropanecarbonyl]-pyrrolidine-2-carboxylic acid (1-cyano-cyclopropyl)-amide], the IC50 at Cathepsin S was 0.18 nM.

As for `N#CC1(NC(=O)[C@@H]2C[C@@H](S(=O)(=O)c3ccc(-n4cccn4)cc3Cl)CN2C(=O)C2(c3ccc(Cl)cc3)CC2)CC1` [Example 327, (2S,4R)-1-[1-(4-Chloro-phenyl)-cyclopropanecarbonyl]-4-(2-chloro-4-pyrazol-1-yl-benzenesulfonyl)-pyrrolidine-2-carboxylic acid (1-cyano-cyclopropyl)-amide], the IC50 at Cathepsin S came out at 0.175 nM. In the case of `CC(C)(C)N1CCN(c2ccc(S(=O)(=O)[C@@H]3C[C@@H](C(=O)NC4(C#N)CC4)N(C(=O)C4(c5ccc(Cl)cc5)CC4)C3)c(Cl)c2)CC1` [Example 329, (2S,4R)-4-[4-(4-tert-Butyl-piperazin-1-yl)-2-chloro-benzenesulfonyl]-1-[1-(4-chloro-phenyl)-cyclopropanecarbonyl]-pyrrolidine-2-carboxylic acid (1-cyano-cyclopropyl)-amide], at Cathepsin S, the half-maximal inhibitory concentration (IC50) came out at 0.115 nM. On the same count and under the same terms, to `N#CC1(NC(=O)[C@@H]2C[C@@H](S(=O)(=O)c3ccc(N4CCN(C5CC5)CC4)cc3Cl)CN2C(=O)C2(c3ccc(Cl)cc3)CC2)CC1` [Example 330, (2S,4R)-4-[2-Chloro-4-(4-cyclopropyl-piperazin-1-yl)-benzenesulfonyl]-1-[1-(4-chloro-phenyl)-cyclopropanecarbonyl]-pyrrolidine-2-carboxylic acid (1-cyano-cyclopropyl)-amide] belongs 0.08 nM. On to `CC(C)c1nccn1-c1ccc(S(=O)(=O)[C@@H]2C[C@@H](C(=O)NC3(C#N)CC3)N(C(=O)C3(c4ccc(Cl)cc4)CC3)C2)c(Cl)c1` [Example 336, (2S,4R)-4-[2-Chloro-4-(2-isopropyl-imidazol-1-yl)-benzenesulfonyl]-1-[1-(4-chloro-phenyl)-cyclopropanecarbonyl]-pyrrolidine-2-carboxylic acid (1-cyano-cyclopropyl)-amide], for which the half-inhibitory concentration (IC50) at Cathepsin S worked out at 0.33 nM. Still for that read-out and setting: to `Cc1cc(N2C[C@H](S(=O)(=O)c3ccc(N4CC(F)(F)C4)cc3C(F)(F)F)C[C@H]2C(=O)NC2(C#N)CC2)n(C2CCOCC2)n1` [Example 403, (2S,4R)-4-[4-(3,3-Difluoro-azetidin-1-yl)-2-trifluoromethyl-benzenesulfonyl]-1-[5-methyl-2-(tetrahydro-pyran-4-yl)-2H-pyrazol-3-yl]-pyrrolidine-2-carboxylic acid (1-cyano-cyclopropyl)-amide] belongs 0.49 nM. Still for that read-out and setting: to `Cc1cc(N2C[C@H](S(=O)(=O)c3ccc(N4CCN(C)CC4)cc3C(F)(F)F)C[C@H]2C(=O)NC2(C#N)CC2)n(C2CCOCC2)n1` [Example 404, (2S,4R)-4-[4-(4-Methyl-piperazin-1-yl)-2-trifluoromethyl-benzenesulfonyl]-1-[5-methyl-2-(tetrahydro-pyran-4-yl)-2H-pyrazol-3-yl]-pyrrolidine-2-carboxylic acid (1-cyano-cyclopropyl)-amide] belongs 0.405 nM. Consider `N#CC1(NC(=O)[C@@H]2C[C@@H](S(=O)(=O)c3ccccc3C(F)(F)F)CN2c2ncccn2)CC1` [Example 408, (2S,4R)-1-Pyrimidin-2-yl-4-(2-trifluoromethyl-benzenesulfonyl)-pyrrolidine-2-carboxylic acid (1-cyano-cyclopropyl)-amide], for which the IC50 on Cat L was at least 25000 nM. For the compound `Cc1ccc(C2(C(=O)N3C[C@H](S(=O)(=O)c4ccccc4Cl)C[C@H]3C(=O)NC3(C#N)CC3)CC2)cc1` [Example 438, (2S,4R)-4-(2-chlorophenylsulfonyl)-N-(1-cyanocyclopropyl)-1-(1-p-tolylcyclopropane-carbonyl)pyrrolidine-2-carboxamide], at Cathepsin S, the IC50 was 0.52 nM. For `N#CC1(NC(=O)[C@@H]2C[C@@H](S(=O)(=O)Cc3ccccc3)CN2C(=O)C2(c3ccc(Cl)cc3)CC2)CC1` [Example 458, (2S,4R)-4-(benzylsulfonyl)-1-(1-(4-chlorophenyl)cyclopropanecarbonyl)-N-(1-cyanocyclopropyl)pyrrolidine-2-carboxamide], the IC50 on Cathepsin S was found to be 61900 nM.

Values taken from patent US8163793B2, “Proline derivatives” (Hoffman-La Roche Inc., priority 2009, dated 2012).
